The values that follow come from patent US20100105031A1, “METHOD FOR PREDICTION OF THE EFFICACY OF VASCULARIZATION INHIBITOR” (Esai R & D Management Co., Ltd., priority 2005, published 2010).

One experiment concerns MDA-MB-468. Briefly: Antitumor effect in human cancer cell line subcutaneously transplanted model (MDA-MB-468). Format: in vivo, nude mouse. From the text: (§1) Human cancer cell lines A375 (purchased from Dainippon Pharma Co., Ltd.), SEKI, HMV-1 (these two lines were purchased from JCRB cell bank, National Institute of Biomedical Innovation), FEM (granted from Dr. Fodstad, The Norwegian Radiumhospital Research Foundation), LOX (purchased from AntiCancer), AZ-521 (purchased from Japan Health Science Foundation), MDA-MB-468, DLD-1, HCT116, SW620, PC-3, DU145, AsPC-1, H526, MDA-MB-231, SK-Mel-2, Lovo and A431 (these 12 lines were purchased from ATCC) were cultured with RPMI1640 (containing 10% FBS) in a 5% CO2 incubator until they reached about 80% confluence. After culturing, cells from each line w ere recovered with trypsin-EDTA by conventional procedures. The cells were suspended in phosphate buffer solution to prepare a cell suspension of 1×10^8 cells/ml or 5×10^7 cells/ml. Subsequently, 0.1 ml of the cell suspension was subcutaneously transplanted on the lateral side of each nude mouse. After transplantation, when the tumor volume reached about 100-200 mm^3, administration of 4-(3-chloro-4-(cyclopropylaminocarbonyl)-aminophenoxy)-7-methoxy-6-quinolinecarboxamide was started (100 mg/kg; twice a day; one week; oral administration). […] The major axis and minor axis of tumor were measured with a Degimatic Caliper (Mitsutoyo). Then, tumor volume and ΔT/C were calculated using the following formulas: […]

In a further experiment the test system is MDA-MB-231. Briefly: Antitumor effect in human cancer cell line subcutaneously transplanted model (MDA-MB-231). Format: in vivo, nude mouse.
Excerpt: as §1

Another experiment concerns DU145. The experiment can be described thus: Antitumor effect in human cancer cell line subcutaneously transplanted model (DU145). Format: in vivo, nude mouse.
Excerpt: as §1

A further experiment relates to AZ-521. The experiment can be described thus: Antitumor effect in human cancer cell line subcutaneously transplanted model (AZ-521). Format: in vivo, nude mouse.
Excerpt: as §1

In a further experiment the test system is Lovo. The experiment can be described thus: Antitumor effect in human cancer cell line subcutaneously transplanted model (Lovo). Format: in vivo, nude mouse.
Excerpt: as §1

Another experiment concerns SK-Mel-2. Briefly: Antitumor effect in human cancer cell line subcutaneously transplanted model (SK-Mel-2). Format: in vivo, nude mouse.
Excerpt: as §1

Experiment [1] relates to AsPC-1. The experiment can be described thus: Antitumor effect in human cancer cell line subcutaneously transplanted model (AsPC-1). Format: in vivo, nude mouse.
Excerpt: as §1

The next experiment relates to A431. The experiment can be described thus: Antitumor effect in human cancer cell line subcutaneously transplanted model (A431). Format: in vivo, nude mouse.
Excerpt: as §1

Another experiment concerns SW620. Briefly: Antitumor effect in human cancer cell line subcutaneously transplanted model (SW620). Format: in vivo, nude mouse.
Excerpt: as §1

In a further experiment the test system is DLD-1. The experiment can be described thus: Antitumor effect in human cancer cell line subcutaneously transplanted model (DLD-1). Format: in vivo, nude mouse.
Excerpt: as §1

For a further experiment, the system named is HCT116. Briefly: Antitumor effect in human cancer cell line subcutaneously transplanted model (HCT116). Format: in vivo, nude mouse.
Excerpt: as §1

In a further experiment the test system is A375. Briefly: Antitumor effect in human cancer cell line subcutaneously transplanted model (A375). Format: in vivo, nude mouse.
Excerpt: as §1

Another experiment deals with LOX. The experiment can be described thus: Antitumor effect in human cancer cell line subcutaneously transplanted model (LOX). Format: in vivo, nude mouse.
Excerpt: as §1

The next experiment concerns HMV-1. The experiment can be described thus: Antitumor effect in human cancer cell line subcutaneously transplanted model (HMV-1). Format: in vivo, nude mouse.
Excerpt: as §1

The test system of a further experiment is SEKI. The experiment can be described thus: Antitumor effect in human cancer cell line subcutaneously transplanted model (SEKI). Format: in vivo, nude mouse.
Excerpt: as §1

The subject of a further experiment is FEM. Briefly: Antitumor effect in human cancer cell line subcutaneously transplanted model (FEM). Format: in vivo, nude mouse.
Excerpt: as §1

The next experiment concerns PC-3. The experiment can be described thus: Antitumor effect in human cancer cell line subcutaneously transplanted model (PC-3). Format: in vivo, nude mouse.
Excerpt: as §1

For experiment [2], the system named is H526. The experiment can be described thus: Antitumor effect in human cancer cell line subcutaneously transplanted model (H526). Format: in vivo, nude mouse.
Excerpt: as §1

The subject of experiment [3] is AsPC-1. The experiment can be described thus: Example 3 antitumor effect, relative tumor volume, subcutaneously transplanted model (AsPC-1). Format: in vivo, nude mouse. The settings on record: FIG. 2. On the procedure:
(§2) Human cancer cell lines AsPC-1 and H526 (both strains were purchased from ATCC) were cultured with RPMI1640 (containing 10% FBS) in a 5% CO2 incubator until they reached about 80% confluence. After culturing, cells from each strain were recovered with trypsin-EDTA by conventional procedures. The cells were suspended in phosphate buffer to prepare a cell suspension of 5×10^7 cells/ml. Subsequently, 0.1 ml of the cell suspension was subcutaneously transplanted on the lateral side of each nude mouse. After transplantation, when the tumor volume reached about 50-200 mm^3, administration of 5-(5-fluoro-2-oxo-1,2-dihydroindole-3-ylidenemethyl)-2,4-dimethyl-1H-pyrrole-3-carboxylic acid (2-diethylaminoethyl)amide (100 mg/kg, once a day, one week, oral administration) was started. The 5-(5-fluoro-2-oxo-1,2-dihydroindole-3-ylidenemethyl)-2,4-dimethyl-1H-pyrrole-3-carboxylic acid (2-diethylaminoethyl)amide was prepared based on the disclosure in WO 01/060814. The major axis and minor axis of tumor were measured with a Degimatic Caliper (Mitsutoyo). Then, tumor volume and relative tumor volume were calculated using the following formulas:
(§3) Tumor volume(TV)=tumor major axis(mm)×tumor minor axis^2(mm^2)/2
(§4) Relative tumor volume(RTV)=tumor volume on the measurement day/tumor volume on the starting day of administration

For experiment [4], the system named is H526. Briefly: Example 3 antitumor effect, relative tumor volume, subcutaneously transplanted model (H526). The note with it: FIG. 2. Format: in vivo, nude mouse. On the procedure:
as §2, §3, §4

Another experiment deals with colorectal cancer. The note with it: clinical trials; cited from earlier work.
Setting [5] is: class by intensity of antitumor effect (ΔT/C).
Where [6] appears, read: Melanoma, 100 mg/kg twice a day, one week, oral, day 8 vs day 1.
[7] abbreviates: Compound 1 administration group.
The mark [8] stands for this setting: Compound 2 administration group, 100 mg/kg once a day, one week, oral.

For the compound `COc1cc2nccc(Oc3ccc(NC(=O)NC4CC4)c(Cl)c3)c2cc1C(N)=O` [Compound 1, 4-(3-chloro-4-(cyclopropylaminocarbonyl)aminophenoxy)-7-methoxy-6-quinolinecarboxamide], the ΔT/C was −53% in the experiment on MDA-MB-468 (MDA-MB-468, Breast cancer, 100 mg/kg twice a day, one week, oral, day 8 vs day 1); −33% with MDA-MB-231 (MDA-MB-231, Breast cancer, 100 mg/kg twice a day, one week, oral, day 8 vs day 1); −60% with DU145 (DU145, Prostate cancer, 100 mg/kg twice a day, one week, oral, day 8 vs day 1); −57% in the experiment with AZ-521 (AZ-521, Gastric cancer, 100 mg/kg twice a day, one week, oral, day 8 vs day 1); −11% with Lovo (Large bowel cancer, 100 mg/kg twice a day, one week, oral, day 8 vs day 1); −2.5% with SK-Mel-2 (SK-Mel-2, Melanoma, 100 mg/kg twice a day, one week, oral, day 8 vs day 1). The ΔT/C is recorded as −8% with AsPC-1 [1] (AsPC-1, Pancreatic cancer, 100 mg/kg twice a day, one week, oral, day 8 vs day 1); −8% in the experiment on A431 (A431, Epidermoid carcinoma, 100 mg/kg twice a day, one week, oral, day 8 vs day 1); 22% with SW620 (SW620, Large bowel cancer, 100 mg/kg twice a day, one week, oral, day 8 vs day 1); 52% with DLD-1 (DLD-1, Large bowel cancer, 100 mg/kg twice a day, one week, oral, day 8 vs day 1); 17% with HCT116 (HCT116, Large bowel cancer, 100 mg/kg twice a day, one week, oral, day 8 vs day 1); 26% with A375 (A375, Melanoma, 100 mg/kg twice a day, one week, oral, day 8 vs day 1). In addition, the ΔT/C in the experiment with LOX (setting [6]) turned out to be 42%; with HMV-1 (HMV-1, Melanoma, 100 mg/kg twice a day, one week, oral, day 8 vs day 1), 19%; in the experiment on SEKI (setting [6]), 110%; with FEM (setting [6]) it was 55%; in the experiment with PC-3 (PC-3, Prostate cancer, 100 mg/kg twice a day, one week, oral, day 8 vs day 1) it was 54%; in the experiment on H526 [2] (H526, Small cell lung cancer, 100 mg/kg twice a day, one week, oral, day 8 vs day 1), 22%. Besides, the Classification result was “Shrinkage line (Cancer cell lines which showed ΔT/C<−30% were classified as shrinkage lines)” in the experiment with MDA-MB-468 (MDA-MB-468, class by intensity of antitumor effect (ΔT/C)); “Shrinkage line (Cancer cell lines which showed ΔT/C<−30% were classified as shrinkage lines)” in the experiment on MDA-MB-231 (MDA-MB-231, class by intensity of antitumor effect (ΔT/C)); “Shrinkage line (Cancer cell lines which showed ΔT/C<−30% were classified as shrinkage lines)” in the experiment with DU145 (DU145, class by intensity of antitumor effect (ΔT/C)); “Shrinkage line (Cancer cell lines which showed ΔT/C<−30% were classified as shrinkage lines)” in the experiment with AZ-521 (AZ-521, class by intensity of antitumor effect (ΔT/C)); “Rest line (cancer cell lines which showed −30%<ΔT/C<10% were classified as rest lines)” in the experiment with Lovo (setting [5]); “Rest line (cancer cell lines which showed −30%<ΔT/C<10% were classified as rest lines)” with SK-Mel-2 (SK-Mel-2, class by intensity of antitumor effect (ΔT/C)). In addition, the Classification entry is on record as “Rest line (cancer cell lines which showed −30%<ΔT/C<10% were classified as rest lines)” in the experiment on AsPC-1 [1] (AsPC-1, class by intensity of antitumor effect (ΔT/C)); “Rest line (cancer cell lines which showed −30%<ΔT/C<10% were classified as rest lines)” with A431 (A431, class by intensity of antitumor effect (ΔT/C)); “Proliferation line (cancer cell lines which showed 10%<ΔT/C were classified as proliferation lines)” in the experiment with SW620 (SW620, class by intensity of antitumor effect (ΔT/C)); “Proliferation line (cancer cell lines which showed 10%<ΔT/C were classified as proliferation lines)” in the experiment on DLD-1 (DLD-1, class by intensity of antitumor effect (ΔT/C)); “Proliferation line (cancer cell lines which showed 10%<ΔT/C were classified as proliferation lines)” in the experiment on HCT116 (HCT116, class by intensity of antitumor effect (ΔT/C)); “Proliferation line (cancer cell lines which showed 10%<ΔT/C were classified as proliferation lines)” in the experiment on A375 (A375, class by intensity of antitumor effect (ΔT/C)). Also, the Classification entry with LOX (setting [5]) is given as “Proliferation line (cancer cell lines which showed 10%<ΔT/C were classified as proliferation lines)”; in the experiment with HMV-1 (HMV-1, class by intensity of antitumor effect (ΔT/C)) it was “Proliferation line (cancer cell lines which showed 10%<ΔT/C were classified as proliferation lines)”; in the experiment with SEKI (setting [5]), “Proliferation line (cancer cell lines which showed 10%<ΔT/C were classified as proliferation lines)”; in the experiment on FEM (setting [5]), “Proliferation line (cancer cell lines which showed 10%<ΔT/C were classified as proliferation lines)”; with PC-3 (PC-3, class by intensity of antitumor effect (ΔT/C)) it was “Proliferation line (cancer cell lines which showed 10%<ΔT/C were classified as proliferation lines)”; with H526 [2] (H526, class by intensity of antitumor effect (ΔT/C)) it was “Proliferation line (cancer cell lines which showed 10%<ΔT/C were classified as proliferation lines)”. Further, the tumor proliferation entry in the experiment on AsPC-1 [3] (setting [7]) is given as “rested”; in the experiment on H526 [4] (setting [7]), “delayed”.

For the compound `CCN(CC)CCNC(=O)c1c(C)[nH]c(/C=C2\C(=O)Nc3ccc(F)cc32)c1C` [Compound 2, 5-(5-fluoro-2-oxo-1,2-dihydroindole-3-ylidenemethyl)-2,4-dimethyl-1H-pyrrole-3-carboxylic acid (2-diethylaminoethyl)amide, reference compound], the tumor proliferation entry in the experiment with AsPC-1 [3] (setting [8]) is “rested”; in the experiment with H526 [4] (setting [8]) it was “delayed”.

Take “bevacizumab: human anti-VEGF monoclonal antibody sold by Genentech as Avastin”: the antitumor effect result in the experiment with colorectal cancer is recorded as “shown an antitumor effect”.
